SMILES strings stand for the structures.

The target in the test is T1, NMDA receptor composed of four subunits consisting of two sets of heterodimers of NR1 and NR2B (human GRIN1 and GRIN2B-expressing HEK293 cells) (Homo sapiens, UniProt Q13224).
T1 construct: host or cells: HEK293 (tetracycline-inducible expression)
T1 sequence (Q13224 27-1484, other chains not shown): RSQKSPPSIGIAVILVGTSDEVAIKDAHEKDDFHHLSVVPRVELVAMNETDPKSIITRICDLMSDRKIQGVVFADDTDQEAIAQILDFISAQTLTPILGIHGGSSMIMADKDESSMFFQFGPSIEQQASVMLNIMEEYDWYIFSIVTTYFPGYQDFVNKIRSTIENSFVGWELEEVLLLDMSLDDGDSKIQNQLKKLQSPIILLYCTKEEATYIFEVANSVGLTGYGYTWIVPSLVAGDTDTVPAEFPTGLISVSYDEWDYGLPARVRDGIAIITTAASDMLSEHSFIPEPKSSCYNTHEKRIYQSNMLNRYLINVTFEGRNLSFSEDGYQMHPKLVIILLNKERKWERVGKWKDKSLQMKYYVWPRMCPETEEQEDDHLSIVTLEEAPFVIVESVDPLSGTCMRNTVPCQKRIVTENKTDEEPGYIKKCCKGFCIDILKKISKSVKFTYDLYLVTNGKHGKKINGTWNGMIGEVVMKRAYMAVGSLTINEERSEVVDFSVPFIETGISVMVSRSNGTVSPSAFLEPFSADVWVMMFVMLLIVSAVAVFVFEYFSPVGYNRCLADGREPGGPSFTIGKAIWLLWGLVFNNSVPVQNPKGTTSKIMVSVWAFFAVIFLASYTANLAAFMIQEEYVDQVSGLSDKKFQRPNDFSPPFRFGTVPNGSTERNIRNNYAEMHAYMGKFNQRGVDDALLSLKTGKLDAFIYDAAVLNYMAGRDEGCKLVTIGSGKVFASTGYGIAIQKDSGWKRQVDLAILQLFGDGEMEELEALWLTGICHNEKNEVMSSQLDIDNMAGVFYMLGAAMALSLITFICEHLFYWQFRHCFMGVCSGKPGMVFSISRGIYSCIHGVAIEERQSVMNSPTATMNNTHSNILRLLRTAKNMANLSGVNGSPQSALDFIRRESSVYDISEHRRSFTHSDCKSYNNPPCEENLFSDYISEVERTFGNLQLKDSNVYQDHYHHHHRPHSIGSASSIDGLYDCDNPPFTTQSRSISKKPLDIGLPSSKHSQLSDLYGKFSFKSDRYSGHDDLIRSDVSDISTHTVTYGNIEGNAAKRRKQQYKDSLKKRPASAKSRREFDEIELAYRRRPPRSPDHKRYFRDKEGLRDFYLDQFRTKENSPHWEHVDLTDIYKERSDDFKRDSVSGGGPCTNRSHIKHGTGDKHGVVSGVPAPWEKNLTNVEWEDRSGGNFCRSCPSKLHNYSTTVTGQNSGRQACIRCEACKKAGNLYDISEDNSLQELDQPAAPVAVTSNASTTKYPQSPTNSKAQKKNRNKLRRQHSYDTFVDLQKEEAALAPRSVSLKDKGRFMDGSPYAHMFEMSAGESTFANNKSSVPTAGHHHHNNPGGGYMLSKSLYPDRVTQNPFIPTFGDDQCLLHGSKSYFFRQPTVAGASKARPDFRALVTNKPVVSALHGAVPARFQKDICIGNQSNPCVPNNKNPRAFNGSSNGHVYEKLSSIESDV
In words: NR2B Ca2+ influx assay. Format: cell-based. To be noted: 10 μM compound, glutamic acid/glycine-induced Ca2+ influx, FLIPR, read-out: inhibitory rate (10 μM compound concentration). Here is the method:
In order to confirm an “antagonistic action on an NMDA receptor containing the NR2B subunit” which the compound of the present invention has, inhibitory effect on the NMDA receptor activation was evaluated using “NMDA receptor composed of four subunits consisting of two sets of heterodimers of NR1 and NR2B”-expressing human fetal renal cells, specifically human glutamate ionotropic receptor NMDA type subunit 1 (GRIN1) and human glutamate ionotropic receptor NMDA type subunit 2B (GRIN2B)-expressing HEK293 cells.
As an index of the NMDA receptor activation, intracellular calcium ion (Ca^2+) influx caused by bonding of glycine and glutamate to NR1 and NR2B respectively was used. HEK293 cells were purchased from ChanTest. The cells were cultured in a DMEM/F-12 (COSMO BIO, 10-092-CM) medium containing 10% FBS (fetal bovine serum, AusGene), 100 units/mL penicillin, 100 μg/mL streptomycin, 500 μg/mL neomycin, 100 μg/mL Zeocin and 5 μg/mL Blasticidin at 37° C., 5% CO2. The cells were detached from flask with trypsin the day before the assay, suspended in a seeding medium (DMEM (Invitrogen, 31053) containing 10% FBS, 100 units/mL penicillin and 100 μg/mL streptomycin) at 8×10^5 cells/mL, seeded by 25 μL per well in a 384-well plate (Falcon, 356663) at 20000 cells/well, and cultured overnight in an incubator. On the day of the assay, tetracycline (Wako Pure Chemical Industries, 209-16561) was diluted with the seeding medium at 2 μg/mL, and the dilution was added at 25 μL/well to the plate seeded with the cells, and the cells were cultured for 2 hr in an incubator. Thereafter, the medium was removed, and the cells were washed with 50 μL/well of assay buffer (137 mM NaCl, 4 mM KCl, 1.8 mM CaCl2, 10 mM HEPES (pH 7.2), 10 mM Glucose, and 0.1% BSA). Then, a loading buffer (assay buffer containing 2.5 μM Fluo-4AM, 2 mM Amaranth and 1 mM Tartrazine) was added thereto at 25 μL/well, and loading was performed in the incubator for 30 min, and then at room temperature for 15 min. The test compound was diluted with the above-mentioned assay buffer so as to adjust the concentration to 30 μM, the obtained solution (25 μL) was added thereto (the final concentration 10 μM), and the cells were stood for 15 min at room temperature. Using FLIPR (Molecular Devices), 25 μL of an assay buffer containing 30 μM glutamic acid and 30 μM glycine was added thereto, and the fluorescence signal was measured every 3 seconds for 5 min. The relative activity value (inhibitory rate) was calculated when the cumulative total value of the fluorescence value of a well added with a buffer free of glutamic acid and glycine, relative to the cumulative total value of the fluorescence value of each well are regarded as 100% inhibition. The obtained value was evaluated as an inhibitory activity.
As to `Cc1nn2cnccc2c1CNC(=O)c1cnc(OC(F)F)c(Cl)c1` [Example 56, 5-chloro-6-(difluoromethoxy)-N-((2-methylpyrazolo[1,5-c]pyrimidin-3-yl)methyl)nicotinamide], the inhibition at 10 µM is 85%.
The value for `O=C(NCc1cnn2ccn(CC(F)F)c12)c1cnc(OC(F)F)c(F)c1` [Example 79, N-{[1-(2,2-difluoroethyl)-1H-imidazo[1,2-b]pyrazol-7-yl]methyl}-6-(difluoromethoxy)-5-fluoropyridine-3-carboxamide] was 87%; that for `O=C(NCc1c(C2CC2)nn2ncccc12)c1ccc(OC(F)F)c(F)c1` [Example 29, N-((2-cyclopropylpyrazolo[1,5-b]pyridazin-3-yl)methyl)-4-(difluoromethoxy)-3-fluorobenzamide] was 89%.
The value for `Cc1cnn2nnc(CNC(=O)c3ccc(OC(F)(F)F)c(F)c3)c2c1` [Example 49, 3-fluoro-N-((5-methyl[1,2,3]triazolo[1,5-b]pyridazin-3-yl)methyl)-4-(trifluoromethoxy)benzamide] was 98%; that for `Cc1cn2ncc(CNC(=O)c3cnc(OC(F)F)c(F)c3)c2n1C` [Example 85, 6-(difluoromethoxy)-N-[(1,2-dimethyl-1H-imidazo[1,2-b]pyrazol-7-yl)methyl]-5-fluoropyridine-3-carboxamide] was 97%.
Next, `Cn1ccn2ncc(CNC(=O)c3ccc(OC(F)(F)F)nc3)c12` [Example 64, N-((1-methyl-1H-imidazo[1,2-b]pyrazol-7-yl)methyl)-6-(trifluoromethoxy)nicotinamide]: 96%.
Regarding `CCn1ccn2ncc(CNC(=O)c3cnc(OC(F)F)c(F)c3)c12` [Example 83, 6-(difluoromethoxy)-N-[(1-ethyl-1H-imidazo[1,2-b]pyrazol-7-yl)methyl]-5-fluoropyridine-3-carboxamide], the inhibition at 10 µM stood at 94%.
The value for `Cc1nn2ncc(CNC(=O)c3ccc(OC(F)(F)F)c(F)c3)c2n1C` [Example 71, N-[(1,2-dimethyl-1H-pyrazolo[1,5-b][1,2,4]triazol-7-yl)methyl]-3-fluoro-4-(trifluoromethoxy)benzamide] was 97%.
Regarding `O=C(NCc1nnn2ccncc12)c1ccc(OC(F)(F)F)c(F)c1` [Example 42, 3-fluoro-N-([1,2,3]triazolo[1,5-a]pyrazin-3-ylmethyl)-4-(trifluoromethoxy)benzamide], the inhibition at 10 µM came to 94%.
The value for `Cc1ccc2c(CNC(=O)c3ccc(OC(F)(F)F)c(F)c3)cnn2n1` [Example 11, 3-fluoro-N-((6-methylpyrazolo[1,5-b]pyridazin-3-yl)methyl)-4-(trifluoromethoxy)benzamide] was 98%.
The value for `O=C(NCc1cnn2ccncc12)c1ccc(OC(F)F)c(F)c1` [Example 44, 4-(difluoromethoxy)-3-fluoro-N-(pyrazolo[1,5-a]pyrazin-3-ylmethyl)benzamide] was 94%.
The value for `O=C(NCc1nnn2ncccc12)c1ccc(OC(F)(F)F)cc1` [Example 19, N-([1,2,3]triazolo[1,5-b]pyridazin-3-ylmethyl)-4-(trifluoromethoxy)benzamide] was 96%.
With `Cn1ccn2ncc(CNC(=O)c3cnc(OC(F)F)c(Cl)c3)c12` [Example 59, 5-chloro-6-(difluoromethoxy)-N-((1-methyl-1H-imidazo[1,2-b]pyrazol-7-yl)methyl)nicotinamide], the inhibition at 10 µM stood at 97%.
The value for `O=C(NCc1cnn2ccncc12)c1cnc(OC(F)F)c(F)c1` [Example 45, 6-(difluoromethoxy)-5-fluoro-N-(pyrazolo[1,5-a]pyrazin-3-ylmethyl)nicotinamide] was 92%; that for `COc1ncc(C(=O)NCc2cnn3ccn(C)c23)cc1F` [Example 61, 5-fluoro-6-methoxy-N-((1-methyl-1H-imidazo[1,2-b]pyrazol-7-yl)methyl)nicotinamide] was 88%; that for `Cc1cnn2ncc(CNC(=O)c3ccc(OC(F)(F)F)c(F)c3)c2c1` [Example 21, 3-fluoro-N-((5-methylpyrazolo[1,5-b]pyridazin-3-yl)methyl)-4-(trifluoromethoxy)benzamide] was 97%.
Next, `COc1ncc(C(=O)NCc2cnn3ncccc23)cc1Cl` [Example 9, 5-chloro-6-methoxy-N-(pyrazolo[1,5-b]pyridazin-3-ylmethyl)nicotinamide]: 87%; `O=C(NCc1nnn2ccccc12)c1ccc(OC(F)(F)F)cc1` [Example 69, N-([1,2,3]triazolo[1,5-a]pyridin-3-ylmethyl)-4-(trifluoromethoxy)benzamide]: 92%.
Next, `Cc1ccnn2nnc(CNC(=O)c3ccc(OC(F)(F)F)c(F)c3)c12` [Example 52, 3-fluoro-N-((4-methyl[1,2,3]triazolo[1,5-b]pyridazin-3-yl)methyl)-4-(trifluoromethoxy)benzamide]: 95%.
Take `Cc1nn2ncc(CNC(=O)c3cnc(OC(F)F)c(Cl)c3)c2n1C` [Example 72, 5-chloro-6-(difluoromethoxy)-N-[(1,2-dimethyl-1H-pyrazolo[1,5-b][1,2,4]triazol-7-yl)methyl]pyridine-3-carboxamide]: the inhibition at 10 µM came to 95%.
The value for `Cc1cccn2nnc(CNC(=O)c3ccc(OC(F)(F)F)cc3)c12` [Example 2, N-((4-methyl[1,2,3]triazolo[1,5-a]pyridin-3-yl)methyl)-4-(trifluoromethoxy)benzamide] was 54%; that for `COc1c(F)cc(C(=O)NCc2cnn3ncccc23)cc1F` [Example 12, 3,5-difluoro-4-methoxy-N-(pyrazolo[1,5-b]pyridazin-3-ylmethyl)benzamide] was 97%.
As for `Cc1nn2ncccc2c1CNC(=O)c1ccc(OC(F)(F)F)c(F)c1` [Example 10, 3-fluoro-N-((2-methylpyrazolo[1,5-b]pyridazin-3-yl)methyl)-4-(trifluoromethoxy)benzamide], the inhibition at 10 µM turned out to be 97%.
Next, `COc1c(F)cc(C(=O)NCc2nnn3ccccc23)cc1F` [Example 41, 3,5-difluoro-4-methoxy-N-([1,2,3]triazolo[1,5-a]pyridin-3-ylmethyl)benzamide]: 86%.
The value for `O=C(NCc1nnn2ccccc12)c1ccc(OC(F)F)c(Cl)c1` [Example 34, 3-chloro-4-(difluoromethoxy)-N-([1,2,3]triazolo[1,5-a]pyridin-3-ylmethyl)benzamide] was 96%; that for `CCOc1nn2ncccc2c1CNC(=O)c1ccc(OC(F)F)c(F)c1` [Example 25, 4-(difluoromethoxy)-N-((2-ethoxypyrazolo[1,5-b]pyridazin-3-yl)methyl)-3-fluorobenzamide] was 78%; that for `Cc1ccnn2nnc(CNC(=O)c3cnc(OC(F)F)c(F)c3)c12` [Example 53, 6-(difluoromethoxy)-5-fluoro-N-((4-methyl[1,2,3]triazolo[1,5-b]pyridazin-3-yl)methyl)nicotinamide] was 84%.
The value for `O=C(NCc1cnn2ccn(CC(F)F)c12)c1cnc(OC(F)F)c(Cl)c1` [Example 80, 5-chloro-N-[{1-(2,2-difluoroethyl)-1H-imidazo[1,2-b]pyrazol-7-yl]methyl}-6-(difluoromethoxy)pyridine-3-carboxamide] was 91%.
In the case of `Cc1ccnn2ncc(CNC(=O)c3ccc(OC(F)F)c(F)c3)c12` [Example 36, 4-(difluoromethoxy)-3-fluoro-N-((4-methylpyrazolo[1,5-b]pyridazin-3-yl)methyl)benzamide], the inhibition at 10 µM amounted to 97%.
Consider `O=C(NCc1c(C(F)F)nn2ncccc12)c1cnc(OC(F)F)c(F)c1` [Example 43, 6-(difluoromethoxy)-N-((2-(difluoromethyl)pyrazolo[1,5-b]pyridazin-3-yl)methyl)-5-fluoronicotinamide], for which the inhibition at 10 µM is 95%.
The value for `O=C(NCc1nnn2ccccc12)c1ccc(C(F)(F)F)c(F)c1` [Example 68, 3-fluoro-N-([1,2,3]triazolo[1,5-a]pyridin-3-ylmethyl)-4-(trifluoromethyl)benzamide] was 83%.

Values taken from US11702419B2, “Heterocyclic compound and use thereof” (Takeda Pharmaceutical Company Limited, priority 2018, dated 2023).
